# Measurements reported in patent publication US11512042B2, “Enamine compounds for absorbance of electromagnetic energy” (Commonwealth Scientific and Industrial Research Organisation, priority 2015, dated 2022).
# Several values for one entry are separate records, joined by “and”; a condition that tells them apart may be missing. Equal entries are not always repeated.
# What was measured:
# Type in all cases: physicochemical
# [1] = % transmission spectrum of 0.1% solution (breakthrough, steepness); conditions: for Steepness: distance in nm over which transmittance increases from 1 to 80%; for Breakthrough (1% T at 0.1%): value in nm where transmittance increases beyond 1%, 0.1% solution
# Excerpt: FIG. 2 is a is a graphical representation of the % transmission of compounds 142 and 143 measured in a 2 mm cuvette as 0.1% solutions in methanol (142 is the left most trace);
# The synthesised benzoyl functionalised compounds and their spectroscopic properties can be seen in table 2 wherein; breakthrough denotes the value in nm where transmittance increases beyond 1%; steepness refers to the distance in nm over which transmittance increases from 1 to 80% (a higher value indicates a less steep transition from absorbing to transmitting and is generally unfavourable); and ^a denotes an average of multiple measurements. As a general comment, it can be noted that the benzoyl substituted compounds gave similar absorbance maxima to the corresponding trifluoroacetyl derivative.
# [2] = UV absorbance spectrum in solution (λmax, λcrit, extinction coefficients); conditions: for λcrit: critical wavelength; for E (1%, 1 cm): mass extinction coefficient; for ε: molar extinction coefficient, in M-1 cm-1 (unit assumed)
# How it was run: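 Spectra taken on 0.001% solutions in methanol, 10 mm path. Breakthrough is the wavelength where transmittance rises above 1%; steepness is the nm span over which transmittance goes from 1 to 80%.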
# [3] = Photostability protocol: thin film irradiated with xenon arc lamp; conditions: 1 hour xenon arc lamp, ratio of absorbance at λmax irradiated vs unirradiated, ^a = average of multiple measurements
# Experimental: 1 mL of a 3% solution of the test compound (30 mg of test compound in 1 mL solvent) was prepared in a solvent mix made up of 50% EtOH and 25% capric/caprylic triglyceride and 25% C12-C15 alkyl benzoate. 50 μL of this solution (containing 1.5 mg of test compound) was added carefully to the centre of a glass microscope slide and the volatile components left to evaporate in the dark for at least 3 hours to give a liquid film. The prepared films were then exposed for 1 hour to an Eimac 150 W xenon arc lamp filtered through Pyrex (15 Amp supply current, samples 19 cm from the lamp) previously allowed to warm up for 15 minutes prior to sample exposure. The irradiation was performed in a fume cupboard where the air flow was sufficient to keep sample T<30° C. One hour's exposure represented a calculated radiation dose (using meter) of approximately 100 MED.
# In order to calculate the photostability of the test compounds, the exposed slides were placed in a beaker and rinsed with 2×5 mL EtOH, 1×5 mL MeOH. The combined washings were then added to a 100 mL volumetric flask and made up to 100 mL total volume with methanol. The UV absorbance was then measured in a 10 mm cuvette. The percent stability is measured as the ratio of absorbance at λmax for the irradiated sample compared to the unirradiated sample.
# The thin films are a good surrogate for testing the stability of a candidate in, for example, a sunscreen formulation as they use cosmetic emollients as solvent and are formed at cosmetically relevant concentrations.
SMILES,Steepness [1],Breakthrough (1% T at 0.1%) [1],λmax [2],λcrit [2],"E (1%, 1 cm) [2]",ε [2],Photostability [3]
CC(C)(C)OC(=O)C(=O)/C(=C/N(c1ccccc1)c1ccccc1)c1ccccc1 [Compound 270],35 nm,400 nm,349 nm,381 nm,551,22023,89%
CCN(/C=C(/C(=O)C(=O)OC(C)(C)C)c1ccccc1)c1ccccc1 [Compound 271],36 nm,381 nm,332 nm,366 nm,530,18592,75%
Cc1ccc(C(=O)/C(=C/N2CCc3ccccc32)c2ccccc2)cc1 [Compound 272],35 nm,421 nm,362 nm,386 nm,887,30075,80%
CCN(/C=C(/C(=O)c1ccc(C)cc1)c1ccccc1)c1ccccc1 [Compound 273],37 nm,394 nm,336 nm,376 nm,614,20922,73%
Cc1ccc(C(=O)/C(=C/N(c2ccccc2)c2ccccc2)c2ccccc2)cc1 [Compound 274],42 nm,411 nm,353 nm,384 nm,420,16369,76%
COc1ccccc1C(=O)/C(=C/N1CCc2ccccc21)c1ccccc1 [Compound 275],30 nm,406 nm,358 nm,383 nm,1074,38139,56%
CCN(/C=C(/C(=O)c1ccccc1OC)c1ccccc1)c1ccccc1 [Compound 276],40 nm,379 nm,327 nm,366 nm,711,25385,56%
O=C(C(=O)N1CCc2ccccc21)/C(=C/N1CCc2ccccc21)c1ccccc1 [Compound 277],26 nm,414 nm,365 nm,388 nm,872,34350,95%
CCCCC(CC)COC(=O)C(=O)/C(=C/N1CCc2cc(C(=O)OC)ccc21)c1ccccc1 (stereo not shown) [Compound 278],30 nm,418 nm,372 nm,391 nm,953,44118,88%
COC(=O)c1ccc2c(c1)CCN2/C=C(/C(=O)C(=O)OC(C)(C)C(=O)OC)c1ccccc1 [Compound 279],32 nm,412 nm,368 nm,386 nm,1304,58842,32%
COC(=O)c1ccc2c(c1)CCN2/C=C(/C(=O)C(=O)OC(C)(C)c1ccccc1)c1ccccc1 [Compound 280],21 nm,384 nm,357 nm,370 nm,1440,67567,68%
COC(=O)c1ccc2c(c1)CCN2C=C(C(=O)c1c(C)cc(C)cc1C)c1ccccc1 [Compound 282],23 nm,402 nm,368 nm,382 nm,1427,60650,89% and 91%
COC(=O)c1ccc2c(c1)CCN2/C=C(/C(=O)C(C)(C)C)c1ccccc1 [Compound 283],16 nm,401 nm,367 nm,384 nm,1339,48637,87% and 88%
COc1ccccc1C(=O)/C(=C/N(c1ccccc1)c1ccccc1)c1ccccc1 [Compound 285],34 nm,398 nm,345 nm,378 nm,666,27034,76%
COC(=O)c1ccc2c(c1)CCN2/C=C(/C(=O)c1ccc(C(C)(C)C)cc1)c1ccccc1 [Compound 287],35 nm,425 nm,373 nm,389 nm,1007,44238,76%
CCC(CC)(CC)OC(=O)/C(=C/N1CCc2cc(C(=O)OC)ccc21)c1ccccc1 [Compound 289],18 nm,381 nm,357 nm,370 nm,1405,59157,78%
CCN(CC)C(=O)C(=O)/C(=C/N1CCc2cc(C(=O)OC)ccc21)c1ccccc1 [Compound 290],22 nm,412 nm,370 nm,389 nm,1260,51191,53%
COC(=O)c1ccc2c(c1)CCN2C=C(C(=O)C(C)(C)C)c1ccc(C)cc1 [Compound 295],16 nm,402 nm,368 nm,385 nm,1307,49288,68%
COC(=O)c1ccc2c(c1)CCN2C=C(C(=O)C(C)(C)C)c1ccc(C(C)(C)C)cc1 [Compound 296],16 nm,401 nm,368 nm,384 nm,1213,50838,73%
CCCCC(CC)COC(=O)c1ccc2c(c1)CCN2C=C(C(=O)C(C)(C)C)c1ccccc1 (stereo not shown) [Compound 300],16 nm,400 nm,367 nm,384 nm,1189,54826,81% and 83%
COC(=O)c1ccc2c(c1)CCN2/C=C(/C(=O)c1ccccc1O[Si](C)(C)C(C)(C)C)c1ccccc1 [Compound 302],26 nm,01 nm,369 nm,384 nm,1089,55852,45%
CCCCC(CC)COC(=O)c1ccc2c(c1)CCN2C=C(C(=O)c1c(C)cc(C)cc1C)c1ccccc1 (stereo not shown) [Compound 303],24 nm,399 nm,369 nm,382 nm,1164,60921,94% and 93%
